For assay [1], the target named is T1, CAIX (Homo sapiens, UniProt Q16790).
T1 construct: purchased R&D Systems (Minneapolis, MN)
Set-up: method as in PMID 26418876. Conditions: positive control, reported value; read-out: IC50 (binding to CAIX, same method); cited from earlier work.

The target in assay [2] is T1, CAIX. Put plainly: Competitive fluorescence polarization assay with FITC-labeled dual-motif ligand. Conditions: 100 nM CAIX, 80 nM FITC-labeled ligand; read-out: IC50 (binding to CAIX, fluorescence polarization). As to the method: Fluorescence polarization (FP) experiments were performed in 21 μL of the assay buffer (12.5 mM Tris-HCl, pH 7.5, 75 mM NaCl) in transparent flat bottom 384 well Small Volume™ LoBase Microplates (Greiner Bio-One, Frickenhausen Germany). The FP reaction employed 100 nM of purified CAIX (R&D systems, Minneapolis, MN) and 80 nM FITC-labeled ligand within the assay buffer. The FP values were measured as mP units using the Safire2™ plate reader (Tecan, Morrisville, NC) with excitation at 475 nm and emission at 532 nm emission. 100 nM CAIX was incubated with serially diluted (from 8 μM to […]) concentrations of the three targeting molecules, 1 and [^63/65Cu]XYIMSR-06 for 30 min at room temperature in 384 well plates. 80 nM FITC-labeled ligand was added to each well and the reaction was incubated for 30 min at room temperature followed by FP measurements. Experiments were carried out in triplicate and the concentration resulting in 50% response (IC50) was calculated in GraphPad Prism 5 (GraphPad Software, La Jolla, CA) using the sigmoidal dose-response regression function. […]
amino)butyl)-1H-1,2,3-triazol-1-yl)butyl)-6,9-dioxa- (FP) assay as described in the experimental section. The 3,12,15,19,23-pentaazaoctacosyl)-1,4,7-triazonane-1,4- IC50 values determined for dual motif precursor 1 (Figure diyl)diacetic acid ([Al19F]XYIMSR-04) . […]
eluded at 35.5 min. MS, calculated for C H AlFN N Heart, lungs, pancreas, spleen, fat, brain, muscle, small […]
and tumor were collected. Each organ was weighed and Radiosynthesis the tissue radioactivity was measured with an automated gamma counter (1282 Compugamma CS, Pharmacia/
For convenience, Na18F in saline purchased from LKBNuclear, Inc., Mt. […] Due to was calculated by comparison with samples of a standard […]
Radiosynthesis of [Al18F]XYIMSR-04. 400μg of Data were expressed as mean ± standard deviation XYIMSR-04 in 200 μL water/Ethanol 1:1 was added to (SD). […] To this mixture, 20 μL of 2 mM AlCl3/NaOAc significance was calculated using a paired t test. […]
On the technique in general: In fluorescence polarisation assays a small probe gives low polarisation when free and higher when bound to something large.

Structures are written as SMILES. Like-named read-outs stand apart in the source and are kept apart here.

Turning to `CC(CCC(=O)NC(CC(=O)NC(CC(=O)NC(CCCCn1cc(CCCC(=O)Nc2nnc(S(N)(=O)=O)s2)nn1)C(=O)NCCOCCOCCN)C(=O)O)C(=O)O)(c1ccc(O)cc1)c1ccc(O)cc1` (stereo not shown) [Compound 1, reference compound], the values for the IC50 on CAIX [1] and at CAIX [2] were 75.9 nM and 63.6 ± 2.8 nM, respectively.

Turning to `CC(CCC(=O)N[C@@H](CC(=O)N[C@@H](CC(=O)N[C@@H](CCCCn1cc(CCCC(=O)Nc2nnc(S(N)(=O)=O)s2)nn1)C(=O)NCCOCCOCCNC(=O)C[N+]12CC[N+]34CC[N+]5(CC1)CC(=O)[O][Al-3]235([F])[O]C(=O)C4)C(=O)O)C(=O)O)(c1ccc(O)cc1)c1ccc(O)cc1` (stereo partly shown) [[Al^19F]XYIMSR-04], on CAIX [2], the IC50 worked out at 96.7 ± 3.3 nM.

Regarding `CC(CCC(=O)N[C@@H](CC(=O)N[C@@H](CC(=O)N[C@@H](CCCCn1cc(CCCC(=O)Nc2nnc(S(N)(=O)=O)s2)nn1)C(=O)NCCOCCOCCNC(=S)Nc1ccc(CC2CN3CCN(CCN2CC(=O)O)CC(=O)[O][Cu][O]C(=O)C3)cc1)C(=O)O)C(=O)O)(c1ccc(O)cc1)c1ccc(O)cc1` (stereo partly drawn) [[^63/65Cu]XYIMSR-06, 2,2′,2″-(2-(4-(3-((11S,15S,19S)-15,19-Dicarboxy-24,24-bis(4-hydroxyphenyl)-10,13,17,21-tetraoxo-11-(4-(4-(4-oxo-4-((5-sulfamoyl-1,3,4-thiadiazol-2-yl)amino)butyl)-1H-1,2,3-triazol-1-yl)butyl)-3,6-dioxa-9,12,16,20-tetraazapentacosyl)thioureido)benzyl)-1,4,7-triazonane-1,4,7-triyl)triacetic acid], the IC50 at CAIX [2] stood at 156 ± 4.3 nM.

As usually defined, the IC50 is the midpoint of a concentration-inhibition curve.

The values above are taken from article PMC5302928, “[^64Cu]XYIMSR-06: A dual-motif CAIX ligand for PET imaging of clear cell renal cell carcinoma” (Oncotarget, 2016).
